The numbers were not newly measured in patent US9119805B2, “Therapy and prevention of problem drinking” (THE UNIVERSITY OF SYDNEY, priority 2009, dated 2015), which cites them from elsewhere.

Each structure is given as a SMILES string. Starred links: 1 amine or outer side, 2 acyl side, 3 side chain; linkers in the order of their positions; H or OH if unused. Positions of bridges follow the written chain, without caps; N, C: chain ends. Residues, ends and D or L forms follow the SMILES beside them. X1 = O=C(CCC[*:2])[*:1]

One data set deals with dependent drinkers. Particulars: cited from earlier work.
In the next data set the target is oxytocin receptor (Homo sapiens, UniProt P30559). Particulars: compared to native oxytocin; cited from earlier work.
In the next data set the test system is vasopressin receptor. Particulars: cited from earlier work.
For data set [1] the following is noted: compared with exogenously applied oxytocin; cited from earlier work.
For data set [2] the following is noted: animal tests; cited from earlier work.

oxytocin receptor, sequence (P30559 whole entry): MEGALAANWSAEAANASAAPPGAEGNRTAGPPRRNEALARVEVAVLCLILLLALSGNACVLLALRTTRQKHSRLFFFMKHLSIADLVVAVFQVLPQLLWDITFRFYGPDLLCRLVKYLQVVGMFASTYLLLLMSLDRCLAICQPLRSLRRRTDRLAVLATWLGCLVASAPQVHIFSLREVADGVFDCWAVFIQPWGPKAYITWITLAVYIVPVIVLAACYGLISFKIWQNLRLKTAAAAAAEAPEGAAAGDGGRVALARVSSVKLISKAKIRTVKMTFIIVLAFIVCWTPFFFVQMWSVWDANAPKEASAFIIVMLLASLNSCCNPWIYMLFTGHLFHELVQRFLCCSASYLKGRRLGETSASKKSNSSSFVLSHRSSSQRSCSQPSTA

Take `O=C1CC[C@@]2(O)[C@H]3Cc4ccc(O)c5c4[C@@]2(CCN3CC2CC2)[C@H]1O5` [naltrexone]: the reduction of relapse entry in the data set with dependent drinkers (oral, during the first 3 months) is given as “about 36%”.
As to `CC[C@H](C)[C@@H]1NC(=O)[C@H](Cc2ccc(OC)cc2)NC(=O)CCCSC[C@@H](C(=O)N2CCC[C@H]2C(=O)N[C@@H](CC(C)C)C(=O)NCC(N)=O)NC(=O)[C@H](CC(N)=O)NC(=O)[C@H](CCC(N)=O)NC1=O` [carbetocin, 1-deamino-1-monocarba-[2-O-methyltyrosine]-oxytocin] (Y(Me)IQNCPLG-NH2; linker N-5 via X1), the duration of activity result at oxytocin receptor is “long-lasting activity”.
Consider `CC(=O)NCCCS(=O)(=O)O` [acamprosate], for which, in the data set with dependent drinkers (after 6 months, placebo 23%), the patients continuously abstinent result is “about 36%”.
As for `CC1(C)O[C@@H]2[C@@H](CO[C@@]3(COS(N)(=O)=O)OC(C)(C)O[C@@H]23)O1` [Topiramate], the “proportion of subjects with 28 consecutive days of abstinence or non-hazardous/harmful drinking” value with dependent drinkers (short-term abstinence) is given as “increased the proportion”.
As to `Cc1cc(C(=O)N2Cc3cnn(C)c3Nc3ccccc32)ccc1CNC(=O)N1CCN(Cc2cc(O)cc(O)c2)CC1` [WAY-267,464], the “affinity for the vasopressin receptor” value in the data set on vasopressin receptor is listed as “negligible affinity”. In addition, in data set [1], the “extent of crossing the blood-brain-barrier” value was “significantly greater extent than exogenously applied oxytocin”. Moreover, in data set [2], the anti-depressant effect entry is listed as “no apparent anti-depressant effect” and the centrally-mediated oxytocinergic actions entry is reported as “anxiolytic effects”.
